From US10543212B2, “Substituted amines for treating cardiac diseases” (Cardurion Pharmaceuticals, LLC, priority 2017, dated 2020)

target: T1, Full-length, GST-tagged, human CaMKIIδ (Homo sapiens, UniProt Q13557); assay: CaMKIIδ binding assay (TR-FRET with BODIPY-labeled probe ligand); details: CaMKIIδ binding assay, results of Table 2
T1 construct: Full-Length, Glutathione-S-Transferase(GST)-Tagged, Human CaMKIIδ was purchased from Carna Biosciences; purchased Carna Biosciences 02-111
Procedure, shortened: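 TR-FRET probe-displacement binding: 0.5 nM GST-CaMKIIδ with 10 μg/mL calmodulin, 1 mM CaCl2, 0.21 nM Tb-anti-GST Ab and 300 nM BODIPY probe in HEPES pH 7.6 buffer. Eight-point 4-fold dilutions, 1 hr at room temperature. IC50 from logistic fit; 100% inhibition defined by 3 μM parent compound.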

T1 sequence (Q13557 1-478 isoform Q13557-12): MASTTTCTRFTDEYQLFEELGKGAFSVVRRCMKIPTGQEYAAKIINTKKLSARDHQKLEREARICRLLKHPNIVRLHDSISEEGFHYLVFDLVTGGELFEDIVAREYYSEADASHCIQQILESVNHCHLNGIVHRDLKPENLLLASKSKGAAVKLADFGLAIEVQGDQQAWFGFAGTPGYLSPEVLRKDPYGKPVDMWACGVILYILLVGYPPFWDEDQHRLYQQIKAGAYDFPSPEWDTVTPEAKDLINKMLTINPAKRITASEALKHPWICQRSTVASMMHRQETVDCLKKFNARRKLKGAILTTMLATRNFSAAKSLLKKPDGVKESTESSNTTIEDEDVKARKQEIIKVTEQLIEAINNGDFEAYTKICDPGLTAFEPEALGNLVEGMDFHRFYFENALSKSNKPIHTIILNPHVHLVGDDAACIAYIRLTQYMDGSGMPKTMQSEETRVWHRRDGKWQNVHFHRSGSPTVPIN

Q: `COc1cc2c(cc1Nc1ncc(-c3ccc(Cl)c(O[C@@H](C)Cn4cnnn4)c3)cn1)CCN(C=O)C2` [Example 471, (S)-6-((5-(3-((1-(1H-tetrazol-1-yl)propan-2-yl)oxy)-4-chlorophenyl)pyrimidin-2-yl)amino)-7-methoxy-3,4-dihydroisoquinoline-2(1H)-carbaldehyde] was tested. Which IC50 did it give?
A: The IC50 was 0.01 to 0.1 µM.

Q: With `COc1cc(C2=CCN(C3COC3)CC2)c(C)cc1Nc1ncc(-c2ccc(Cl)c(O[C@@H](C)Cn3cnnn3)c2)cn1` [Example 531, (S)-5-(3-((1-(1H-tetrazol-1-yl)propan-2-yl)oxy)-4-chlorophenyl)-N-(2-methoxy-5-methyl-4-(1-(oxetan-3-yl)-1,2,3,6-tetrahydropyridin-4-yl)phenyl)pyrimidin-2-amine] as the compound, how does the IC50 read?
A: The IC50 was 0.01 to 0.1 µM.

Q: Which IC50 does the source give for `COc1cc2c(cc1Nc1ncc(-c3ccc(C#N)c(O[C@@H](C)Cn4cncn4)c3)cn1)C(=O)N(C1CCC1)C2` [Example 443, (S)-2-((1-(1H-1,2,4-triazol-1-yl)propan-2-yl)oxy)-4-(2-((2-cyclobutyl-6-methoxy-3-oxoisoindolin-5-yl)amino)pyrimidin-5-yl)benzonitrile] here?
A: The IC50 was 0.01 to 0.1 µM.

Q: Which IC50 does the source give for `C[C@@H](Cn1cnnn1)Oc1cc(-c2cnc(Nc3cn(C4CCN(Cc5ccncc5)CC4)nc3C(F)(F)F)nc2)ccc1Cl` [Example 550, (S)-5-(3-((1-(1H-tetrazol-1-yl)propan-2-yl)oxy)-4-chlorophenyl)-N-(1-(1-(pyridin-4-ylmethyl)piperidin-4-yl)-3-(trifluoromethyl)-1H-pyrazol-4-yl)pyrimidin-2-amine] here?
A: Its IC50 is 0.01 to 0.1 µM.

same assay, conditions: CaMKIIδ binding assay; activity class per Table 2

Q: How did the IC50 turn out when `C[C@@H](Cn1cnnn1)Oc1cc(-c2cnc(Nc3cn(-c4ccc(=O)[nH]c4)nc3OCC(F)(F)F)nc2)ccc1Cl` [Example 902, (S)-5-(4-((5-(3-((1-(1H-tetrazol-1-yl)propan-2-yl)oxy)-4-chlorophenyl)pyrimidin-2-yl)amino)-3-(2,2,2-trifluoroethoxy)-1H-pyrazol-1-yl)pyridin-2(1H)-one] was run?
A: The IC50 was < 0.01 µM.

Q: For `C[C@@H](Cn1cnnn1)Oc1cc(-c2cnc(Nc3cn(C4CC5(C4)CN(C4(C#N)CCOCC4)C5)nc3OCC(F)(F)F)nc2)ccc1Cl` [Example 1010, (S)-4-(6-(4-((5-(3-((1-(1H-tetrazol-1-yl)propan-2-yl)oxy)-4-chlorophenyl)pyrimidin-2-yl)amino)-3-(2,2,2-trifluoroethoxy)-1H-pyrazol-1-yl)-2-azaspiro[3.3]heptan-2-yl)tetrahydro-2H-pyran-4-carbonitrile], which IC50 is on record?
A: Its IC50 is < 0.01 µM.

Q: For `C[C@@H](Cn1cnnn1)Oc1cc(-c2cnc(Nc3cn(CC4(O)CCC(=O)CC4)nc3OCC(F)(F)F)nc2)ccc1Cl` [Example 903, (S)-4-((4-((5-(3-((1-(1H-tetrazol-1-yl)propan-2-yl)oxy)-4-chlorophenyl)pyrimidin-2-yl)amino)-3-(2,2,2-trifluoroethoxy)-1H-pyrazol-1-yl)methyl)-4-hydroxycyclohexan-1-one], which IC50 is on record?
A: Its IC50 is < 0.01 µM.

Q: With `C[C@@H](Cn1cnnn1)Oc1cc(-c2cnc(Nc3cn(C4CC5(C4)CN(C4(C)CCOC4)C5)nc3OCC(F)(F)F)nc2)ccc1Cl` (stereo partly drawn) [Example 954, 5-(3-(((S)-1-(1H-tetrazol-1-yl)propan-2-yl)oxy)-4-chlorophenyl)-N-(1-(2-(3-methyltetrahydrofuran-3-yl)-2-azaspiro[3.3]heptan-6-yl)-3-(2,2,2-trifluoroethoxy)-1H-pyrazol-4-yl)pyrimidin-2-amine] as the compound, how does the IC50 read?
A: Its IC50 is < 0.01 µM.

Q: With `C[C@@H](Cn1cnnn1)Oc1cc(-c2cnc(Nc3cn([C@@H]4CN(C5CCC5)CC[C@H]4O)nc3C(F)(F)F)nc2)ccc1Cl` (mixture of isomers) [Example 904, trans-3-(4-((5-(3-(((S)-1-(1H-tetrazol-1-yl)propan-2-yl)oxy)-4-chlorophenyl)pyrimidin-2-yl)amino)-3-(trifluoromethyl)-1H-pyrazol-1-yl)-1-cyclobutylpiperidin-4-ol] as the compound, how does the IC50 read?
A: The IC50 was < 0.01 µM.

Q: `C[C@H](Cn1cnnn1)Oc1cc(-c2cnc(Nc3cn([C@H]4CC[C@@H](N5CCOCC5)CC4)nc3C(F)(F)F)nc2)ccc1Cl` [Example 896, 5-(3-(((R)-1-(1H-tetrazol-1-yl)propan-2-yl)oxy)-4-chlorophenyl)-N-(1-(cis-4-morpholinocyclohexyl)-3-(trifluoromethyl)-1H-pyrazol-4-yl)pyrimidin-2-amine] was tested. Which IC50 did it give?
A: The IC50 was ≥ 0.1 µM.

same assay, conditions: Table 2; CaMKIIδ binding assay, activity given as class A/B/C

Q: Which IC50 does the source give for `C[C@@H](Cn1cnnn1)Oc1cc(-c2cnc(Nc3sc4c(c3C#N)CCCC4)nc2)ccc1Cl` [Example 752, (S)-2-((5-(3-((1-(1H-tetrazol-1-yl)propan-2-yl)oxy)-4-chlorophenyl)pyrimidin-2-yl)amino)-4,5,6,7-tetrahydrobenzo[b]thiophene-3-carbonitrile] here?
A: The IC50 was 0.01 to 0.1 µM.

Q: How did the IC50 turn out when `C[C@@H](Cn1cnnn1)Oc1cc(-c2cnc(Nc3cn(CC(O)CO)nc3C(F)(F)F)nc2)ccc1Cl` (stereo partly drawn) [Example 736, 3-(4-((5-(3-(((S)-1-(1H-tetrazol-1-yl)propan-2-yl)oxy)-4-chlorophenyl)pyrimidin-2-yl)amino)-3-(trifluoromethyl)-1H-pyrazol-1-yl)propane-1,2-diol] was run?
A: Its IC50 is < 0.01 µM.

Q: For `Cc1noc(C)c1Cn1cc(Nc2ncc(-c3ccc(Cl)c(O[C@@H](C)Cn4cnnn4)c3)cn2)c(C(F)(F)F)n1` [Example 734, (S)-5-(3-((1-(1H-tetrazol-1-yl)propan-2-yl)oxy)-4-chlorophenyl)-N-(1-((3,5-dimethylisoxazol-4-yl)methyl)-3-(trifluoromethyl)-1H-pyrazol-4-yl)pyrimidin-2-amine], which IC50 is on record?
A: The IC50 was 0.01 to 0.1 µM.

Q: For `C[C@@H](Cn1cnnn1)Oc1cc(-c2cnc(Nc3cn(C4CCN(C5CC5)CC4)nc3OCC(F)(F)F)nc2)ccc1Cl` [Example 794, (S)-5-(3-((1-(1H-tetrazol-1-yl)propan-2-yl)oxy)-4-chlorophenyl)-N-(1-(1-cyclopropylpiperidin-4-yl)-3-(2,2,2-trifluoroethoxy)-1H-pyrazol-4-yl)pyrimidin-2-amine], which IC50 is on record?
A: Its IC50 is < 0.01 µM.

Q: With `C[C@@H](Cn1cnnn1)Oc1cc(-c2cnc(Nc3cn([C@H]4CC[C@H](N5CCC5)CC4)nc3C(F)(F)F)nc2)ccc1Cl` [Example 779, 5-(3-(((S)-1-(1H-tetrazol-1-yl)propan-2-yl)oxy)-4-chlorophenyl)-N-(1-(trans-4-(azetidin-1-yl)cyclohexyl)-3-(trifluoromethyl)-1H-pyrazol-4-yl)pyrimidin-2-amine] as the compound, how does the IC50 read?
A: The IC50 was < 0.01 µM.

same assay, conditions: Table 2; activity class for CaMKIIδ

Q: How did the IC50 turn out when `COc1nc(N2CCN(C(=O)C(F)(F)F)CC2)ccc1Nc1ncc(-c2ccc(Cl)c(O[C@@H](C)Cn3cnnn3)c2)cn1` [Example 638, (S)-1-(4-(5-((5-(3-((1-(1H-tetrazol-1-yl)propan-2-yl)oxy)-4-chlorophenyl)pyrimidin-2-yl)amino)-6-methoxypyridin-2-yl)piperazin-1-yl)-2,2,2-trifluoroethan-1-one] was run?
A: Its IC50 is ≥ 0.1 µM.

Q: How did the IC50 turn out when `C[C@@H](Cn1cnnn1)Oc1cc(-c2cnc(Nc3cc(N4CCN(C5CCOCC5)CC4)ncc3OC(F)(F)F)nc2)ccc1Cl` [Example 705, (S)-5-(3-((1-(1H-tetrazol-1-yl)propan-2-yl)oxy)-4-chlorophenyl)-N-(2-(4-(tetrahydro-2H-pyran-4-yl)piperazin-1-yl)-5-(trifluoromethoxy)pyridin-4-yl)pyrimidin-2-amine] was run?
A: The IC50 was < 0.01 µM.

Q: `COc1ccc(N2CC(CN3CCOCC3)C2)cc1Nc1ncc(-c2ccc(Cl)c(O[C@@H](C)Cn3cnnn3)c2)cn1` [Example 656, (S)-5-(3-((1-(1H-tetrazol-1-yl)propan-2-yl)oxy)-4-chlorophenyl)-N-(2-methoxy-5-(3-(morpholinomethyl)azetidin-1-yl)phenyl)pyrimidin-2-amine] was tested. Which IC50 did it give?
A: Its IC50 is < 0.01 µM.

Q: With `C#CCn1cc(Nc2ncc(-c3ccc(Cl)c(O[C@@H](C)Cn4cnnn4)c3)cn2)c(C(F)(F)F)n1` [Example 726, (S)-5-(3-((1-(1H-tetrazol-1-yl)propan-2-yl)oxy)-4-chlorophenyl)-N-(1-(prop-2-yn-1-yl)-3-(trifluoromethyl)-1H-pyrazol-4-yl)pyrimidin-2-amine] as the compound, how does the IC50 read?
A: The IC50 was 0.01 to 0.1 µM.

Q: How did the IC50 turn out when `CCn1cc(Nc2ncc(-c3ccc(Cl)c(O[C@@H](C)Cn4cnnn4)c3)cn2)c(N2CCC2)n1` [Example 668, (S)-5-(3-((1-(1H-tetrazol-1-yl)propan-2-yl)oxy)-4-chlorophenyl)-N-(3-(azetidin-1-yl)-1-ethyl-1H-pyrazol-4-yl)pyrimidin-2-amine] was run?
A: Its IC50 is ≥ 0.1 µM.

Q: Which IC50 does the source give for `COc1nc(N2CCN(C3CCC(F)(F)CC3)CC2)ccc1Nc1ncc(-c2ccc(Cl)c(O[C@@H](C)Cn3cnnn3)c2)cn1` [Example 636, (S)-5-(3-((1-(1H-tetrazol-1-yl)propan-2-yl)oxy)-4-chlorophenyl)-N-(6-(4-(4,4-difluorocyclohexyl)piperazin-1-yl)-2-methoxypyridin-3-yl)pyrimidin-2-amine] here?
A: The IC50 was 0.01 to 0.1 µM.

Q: With `C[C@@H](Cn1cnnn1)Oc1cc(-c2cnc(Nc3cn(C4CCN(C(=O)OC(C)(C)C)CC4)nc3OCC(F)(F)F)nc2)ccc1Cl` [Example 675, tert-butyl (S)-4-(4-((5-(3-((1-(1H-tetrazol-1-yl)propan-2-yl)oxy)-4-chlorophenyl)pyrimidin-2-yl)amino)-3-(2,2,2-trifluoroethoxy)-1H-pyrazol-1-yl)piperidine-1-carboxylate] as the compound, how does the IC50 read?
A: The IC50 was 0.01 to 0.1 µM.

Q: Which IC50 does the source give for `CC(C)c1nn(C2CCN(C3CCOCC3)CC2)cc1Nc1ncc(-c2ccc(Cl)c(O[C@@H](C)Cn3cnnn3)c2)cn1` [Example 623, (S)-5-(3-((1-(1H-tetrazol-1-yl)propan-2-yl)oxy)-4-chlorophenyl)-N-(3-isopropyl-1-(1-(tetrahydro-2H-pyran-4-yl)piperidin-4-yl)-1H-pyrazol-4-yl)pyrimidin-2-amine] here?
A: Its IC50 is < 0.01 µM.

Q: Which IC50 does the source give for `COc1ccc(C(=O)N2CCCN(CCO)CC2)cc1Nc1ncc(-c2ccc(Cl)c(O[C@@H](C)Cn3cnnn3)c2)cn1` [Example 588, (S)-(3-((5-(3-((1-(1H-tetrazol-1-yl)propan-2-yl)oxy)-4-chlorophenyl)pyrimidin-2-yl)amino)-4-methoxyphenyl) (4-(2-hydroxyethyl)-1,4-diazepan-1-yl)methanone] here?
A: Its IC50 is < 0.01 µM.
